The text below walks through data of patent publication US10391070B2, “Compositions and methods for treating neurological diseases or injury” (MUSC FOUNDATION FOR RESEARCH DEVELOPMENT, priority 2012, dated 2019).

Where only a bound is given, the exact number is not on record here.

One series concerns zebrafish larvae. The series can be described thus: Zebrafish larval toxicity (NOEC, lethal dose). The class given is in vivo. To be noted: 7 dpf zebrafish larvae; for Lethal dose: up to 5 h treatment; for Highest concentration tested for anti-seizure activity: highest sub-lethal dose. Here is the method: Using a 96-well plate, one zebrafish larva (7 dpf) was placed in each well in 100 μL of tank water (TW). 100 μL of each compound (0.5-15 μM) was then added to each well for 12 animals (one row) to give a final volume of 200 […]. A control row was tested for DMSO toxicity effects. […] Each drug was assessed for the no observed effect concentration (NOEC), the highest non-lethal dose resulting in no apparent toxic effects.
Zebrafish (AB strain) were obtained from the Zebrafish International Resource Center (supported by P40 RR012546 from NIH-NCRR). Zebrafish were maintained and crossed according to standard methods (Westerfield, 2000). Fertilized eggs were collected and placed in E3 embryo medium and positioned in an incubator set at 28.5° C. with a 14/10 h light/dark cycle (Kimmel et al., 1995). To determine the lethal dose of each compound, 96-well plates containing one zebrafish (7 days post-fertilization, dpf) per well in 100 μL of tank water were used. 100 μL of each compound (0.5 to 15 μM) was added to each well for 12 animals (one row) for a final volume of 200 μL. One row of larvae was used as DMSO only controls. […] All zebrafish studies were approved by the Medical University of South Carolina Institutional Animal Care and Use Committee (AR #2850) and performed in accordance with the guidelines.
Using a 96-well plate, one zebrafish larva (7 dpf) was placed in each well in 100 μL of tank water. 100 μL of each compound was then added to each well for 12 animals (one row) for a final volume of 200 μL. One row of zebrafish larvae was used as DMSO only controls. […] Toxicity was also measured in the mouse model by the NIH Anticonvulsant Screening Program at the National Institute of Neurological Disorders and Stroke (Stables and Kupferberg, 1997), according to the established NIH experimental procedures. Compounds were delivered into mice by intraperitoneal (i.p.) injection at a dose of 100 mg/kg in sterile 5% DMSO, 95% Neobee (Josey et al., 2013). Acute toxicity was assessed by monitoring the animals for impaired neuromuscular function by placing treated mice on a rod rotating at 6 rpm. […]

The next series relates to PTZ-induced seizures. Nature of the series: PTZ-induced seizure (swim activity) model in zebrafish larvae. The class given is in vivo, zebrafish (Danio rerio). Conditions: for Seizure suppression: PTZ-treated zebrafish larvae, pretreated 1 hr at NOEC. Here is the method:
The DanioVision locomotion tracking instrument with Ethovision XT software (Noldus) was used to measure the severity of the seizures by quantifying the locomotor activity of each fish.
In a 48-well plate, one 6-7 dpf larva was added per well. Compounds were given at a sub-lethal dose and treated for 1 h. Three control rows were included—tank water (TW) only, PTZ only and PTZ+VPA (2-4 mM final concentration of VPA). […] After 5 min, the plate was transferred to the Daniovision apparatus and the chamber light was turned on. After 2 min, Ethovision was used to determine the distance traveled (a marker of seizure of activity) by each fish for 15 min (25 frames per second). Velocity, duration of movement, and frequency of movement were also determined from the same recording. After measurement, fish were monitored visually for survival. The distance moved over the recording period with Ethovision XT software (Noldus) was averaged over 8 wells per treatment unless the fish was not detected.
In a 48-well plate, one 7 dpf zebrafish was added per well. Larvae were dosed with each compound at a sub-lethal dose 1 h prior to PTZ treatment. Three control rows were included with each experiment—tank water only control, PTZ only and PTZ+VPA (4 mM final concentration of VPA). […] After 5 min, the plate was transferred to the Daniovision instrument (Noldus Information Technology) and the chamber light was turned on. After 2 min, MediaRecorder (Noldus) was used to record video for 15 min. A small number of videos were acquired 25 frames per second, but the majority of the data was acquired at the frame rate of 60 frames per second. After recording, fish were monitored visually for survival. Ethovision XT software (Noldus) was used to track the fish movement from the video images in order to calculate the total distance traveled over 15 min. […] All experimental comparisons were made between animals from the same clutch.

The subject of a further series is HT-22 neuronal cells. The series can be described thus: Respirometry (OCR, ECAR; Seahorse XF-96). The class given is cell-based, mouse. More on the design: ECAR (glycolysis), difference from control: unit not given here. Conditions: HT-22 cells, mean±SEM. As for the experimental part:
Oxygen consumption rates (OCR) and extracellular acidification rates (ECAR) of HT-22 neuronal cells were performed on the XF-96 Extracellular Flux Analyzer (Seahorse Bioscience) using standard methods (Beeson et al., 2010). In brief, cells were cultured in 96 well Seahorse plates in DMEM high glucose media (Invitrogen) supplemented with 10% FBS, 10 mM HEPES, and 1% antibiotic-antimycotic (Invitrogen). The media was replaced with DMEM media supplemented with 25 mM glucose, 10 mM sodium pyruvate, 31 mM NaCl, and 2 mM glutamine at pH 7.4. Each of the four drug ports on the Seahorse sensor cartridge were filled with test compound (media only, 5 μM NQN-1, 10 μM VK3 or 12.5 μM MB), 10 μM oligomycin, 1 μM FCCP, and 5 μM rotenone, which were injected into each well at 20, 80, 110, and 135 min, respectively. The pmol/min OCR rate for each well (9-52 wells/group) was measured. Wells were excluded from the analysis if their OCR values surpassed the Tukey Outlier Rule. In order to standardize the OCR rates across wells, the average OCR value at 17 min (last time point prior to injection of the test compounds) for each experimental group was calculated, and set to 100. All OCR values are given as a percentage of this pre-treatment value. […]

Series [1] relates to HT22 cells. The series can be described thus: In vitro neuroprotective activity against glutamate-induced cell death (MTS cell viability). The class given is cell-based, mouse. To be noted: HT22 cells, glutamate. As for the experimental part: (§1) The HT22 neuronal cell line is a subclone of HT4, derived from the mouse hippocampus (Morimoto and Koshland, 1990). […] HT22 cells were used. The cells were grown in Dulbecco's Modified Eagle's medium (DMEM/high glucose) supplemented with 10% fetal bovine serum (Hyclone) and 5 mL Antibiotic-Antimycotic (Amphotericin B, Penicillin, and Streptomycin; Invitrogen) at 37° C. in 5% CO2.
(§2) Cell viability was assessed by the ability of the viable cells to metabolize 3-(4,5-dimethylthiazol-2-yl)-5-(3-carboxymethoxyphenyl)-2(4-sulfophenyl)2-H-tetrazolium, inner salt (MTS), as described previously (Cory et al., 1991). The metabolism of tetrazolium salts is often used to measure cellular proliferation, but in the system used here, it has been previously shown to correlate well with cell viability as determined by trypan blue exclusion and colony-forming assays (Davis and Maher, 1994). Briefly, HT-22 cells were seeded onto 96-well plates at 5.0×10^3 cells per well in 75 μL of medium and maintained at 37° C. in 5% CO2 overnight prior to the initiation of experimental treatments. For glutamate toxicity testing, cells were subsequently treated with 25 μL of medium containing glutamate (monosodium glutamate, Sigma, 1 M stock concentration in media, to achieve a final concentration of 10 mM) plus inhibitors (stock in DMSO) and maintained at 37° C. in 5% CO2. For t-BuOOH toxicity testing, cells were subsequently treated with 25 μL of medium containing t-BuOOH (Sigma, 10 mM stock concentration, to achieve a final concentration of 50 μM) plus inhibitors (stock in DMSO) and maintained at 37° C. in 5% CO2 for 3 hours, after which the media was removed, cells washed gently with HBSS, the media replaced with standard culture media, and the cells returned to incubation at 37° C. in 5% CO2. For both glutamate and t-BuOOH treatments, 10 μl of MTS solution was added to each well 24 hrs after initial treatment, and the cells were maintained in growth medium for 2 h at 37° C. Absorbance at 490 nm was subsequently measured by a SpectraMax 190 plate reader (Molecular Devices). The growth medium without cells in the presence of MTS solution was used as solution background and untreated cells were considered the controls. Cell viability was calculated as a percentage compared with untreated controls. EC50 determinations were based on 12-point titrations using GraphPad Prism, and each experiment was repeated at least four times. Morphology of HT22 cells following treatments was determined by phase-contrast microscopy. Digital images of cells grown on cell culture plates were captured at 10× magnification.
The neuroprotective properties of VK and its derivatives were estimated through their protective effects against cell death in mouse neuronal HT22 cells induced by exposure to high levels of glutamate, which recapitulates a hallmark of the extracellular environment found in several neurodegenerative diseases and CNS injuries and is a well established model of neuronal oxidative stress. This investigation began by comparing the relative abilities of the two predominant naturally occurring forms of VK, VK1 and VK2, to prevent oxidative cell death. […] Several 1,4-naphthoquinones with various substitutions at the 2′ and 3′ positions were tested to determine the minimum structural requirement of the system and what the optimum scaffold for future developmental efforts and biological validation would be (FIG. 1B and Table 1). […] Substitution by a single methyl group at the 2′ position (VK3) improves the compound's ability to protect against cell death. Various other simple substituents at the 2′ and 3′ positions give the naphthoquinone structure the ability to prevent oxidative cell death at nanomolar concentrations (Table 1 and FIG. 16).

The test system of series [2] is HT22 cells. The series can be described thus: In vitro neurotoxicity without glutamate (MTS cell viability). The class given is cell-based, mouse. Here is the method: as §1, §2

On to `CCCC(CCC)C(=O)NO` [2-propylpentane hydroxamic acid (VPHA), 2-propylpentane hydroxamic acid], for which, in the series with zebrafish larvae, the Lethal dose is over 0.05 mM and the “Highest concentration tested for anti-seizure activity” value (shortened to “Highest concentration tested”) was 0.05 mM. Further, in the series with PTZ-induced seizures, the Seizure suppression entry is on record as “No”.

For `O=C(NO)C(c1ccccc1)c1ccccc1` [Diphenyl acetic hydroxamic acid (dPAHA), diphenyl acetic hydroxamic acid], in the series on zebrafish larvae, the Lethal dose is 0.01 mM and the “Highest concentration tested” value was 0.0075 mM. Further, in the series with PTZ-induced seizures, the Seizure suppression entry is on record as “No”.

With `CN(C)c1ccc2nc3ccc(=[N+](C)C)cc-3sc2c1.[Cl-]` [MB, reference compound], in the series on HT-22 neuronal cells (1 h treatment, OCR as percentage of pre-treatment value), the “basal cellular respiration, difference in OCR from control” value came out at 53.21±5.92. Besides, the “basal mitochondrial respiration, difference from control” value with HT-22 neuronal cells (basal minus non-mitochondrial (rotenone)) is on record as 19.22±6.54. Besides, the “ATP-linked respiration, difference from control” value in the series with HT-22 neuronal cells (basal minus oligomycin) is listed as 19.76±6.59. Moreover, the “ECAR (glycolysis), difference from control” value in the series with HT-22 neuronal cells is on record as −0.86±1.26.

For the molecule `O=C(CCCCCCC(=O)Nc1ccccc1)NO` [Suberoylanilide hydroxamic acid (SAHA), suberoylanilide hydroxamic acid], in the series on zebrafish larvae, the Lethal dose was over 0.015 mM and the “Highest concentration tested” value is listed as 0.015 mM. In the series with PTZ-induced seizures, the Seizure suppression entry is “No”.

On to `CN1CCc2c(c3ccccc3n2Cc2ccc(C(=O)NO)cc2)C1` [Tubastatin A (Tub A), Tubastatin A], for which, in the series with zebrafish larvae, the Lethal dose is over 0.012 mM and the “Highest concentration tested” value worked out at 0.012 mM. The Seizure suppression result in the series with PTZ-induced seizures was “No”.

Take `CC1=C(C/C=C(\C)CCC[C@H](C)CCC[C@H](C)CCCC(C)C)C(=O)c2ccccc2C1=O` [VK1, phylloquinone, reference compound]: the “protection from oxidative cell death” value in the series with HT22 cells [1] is “rescued HT22 cells from oxidative cell death”. Also, in the series with HT22 cells [2], the cellular toxicity entry is reported as “neither exhibited any signs of cellular toxicity”. For the same molecule, the reduction of seizures entry in the series with PTZ-induced seizures (PTZ-treated 6 dpf zebrafish, up to 100 mM) was “neither were found to reduce seizures”.
